The assay concerns the target Xanthine dehydrogenase/oxidase (Bos taurus, UniProt P80457). Nature of the assay: Compound is evaluated for competitive inhibition against xanthine oxidase from cow's milk.
Chain of Xanthine dehydrogenase/oxidase (P80457 whole entry): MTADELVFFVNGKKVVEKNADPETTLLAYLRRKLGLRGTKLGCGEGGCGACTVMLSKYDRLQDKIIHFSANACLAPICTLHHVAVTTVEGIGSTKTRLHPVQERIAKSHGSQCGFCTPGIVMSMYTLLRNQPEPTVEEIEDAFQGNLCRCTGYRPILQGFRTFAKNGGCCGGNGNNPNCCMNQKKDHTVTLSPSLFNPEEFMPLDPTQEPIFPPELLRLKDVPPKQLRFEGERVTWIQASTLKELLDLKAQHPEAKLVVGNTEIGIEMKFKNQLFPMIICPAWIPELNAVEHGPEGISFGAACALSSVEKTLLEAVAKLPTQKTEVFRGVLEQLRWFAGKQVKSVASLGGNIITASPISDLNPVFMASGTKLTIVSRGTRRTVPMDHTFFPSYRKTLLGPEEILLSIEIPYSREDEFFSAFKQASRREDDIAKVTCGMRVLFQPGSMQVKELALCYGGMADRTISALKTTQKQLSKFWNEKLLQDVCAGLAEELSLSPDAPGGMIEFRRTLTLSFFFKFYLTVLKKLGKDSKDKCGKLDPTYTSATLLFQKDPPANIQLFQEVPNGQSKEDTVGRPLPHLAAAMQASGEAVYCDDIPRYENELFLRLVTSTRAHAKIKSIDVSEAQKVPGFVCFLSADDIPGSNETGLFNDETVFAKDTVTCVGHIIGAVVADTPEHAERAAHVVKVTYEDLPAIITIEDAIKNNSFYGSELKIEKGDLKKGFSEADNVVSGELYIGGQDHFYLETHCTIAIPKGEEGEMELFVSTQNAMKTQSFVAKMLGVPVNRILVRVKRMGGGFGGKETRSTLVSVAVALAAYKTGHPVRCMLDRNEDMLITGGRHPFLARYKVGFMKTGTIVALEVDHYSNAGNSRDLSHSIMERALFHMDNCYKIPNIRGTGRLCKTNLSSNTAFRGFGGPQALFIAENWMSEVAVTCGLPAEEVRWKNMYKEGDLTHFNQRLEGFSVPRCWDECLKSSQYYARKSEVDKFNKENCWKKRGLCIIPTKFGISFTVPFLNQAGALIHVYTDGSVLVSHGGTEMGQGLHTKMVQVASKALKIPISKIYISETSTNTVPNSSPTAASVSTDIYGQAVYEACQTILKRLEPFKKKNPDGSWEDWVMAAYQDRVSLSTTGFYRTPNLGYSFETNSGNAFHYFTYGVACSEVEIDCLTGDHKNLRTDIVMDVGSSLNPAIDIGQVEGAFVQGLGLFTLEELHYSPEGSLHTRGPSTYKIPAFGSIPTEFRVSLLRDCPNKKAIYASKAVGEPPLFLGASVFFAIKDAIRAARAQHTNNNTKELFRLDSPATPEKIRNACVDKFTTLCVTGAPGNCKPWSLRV
As to `Cn1c(N)nc(O)c2ccnc1-2`, the Ki was 4.5 µM.

In the case of `Cn1ccc2c(=O)[nH]c(N)nc21`, the Ki was 3 µM.

`Cn1c(N)nc2nccc-2c1O` came in with a Ki of 40 µM.

On to `Nc1nc2c(c(=O)[nH]1)CC=N2` [7-DEAZAGUANINE], for which the Ki is 3 µM. Against the preceding compound, the Ki is about 13-fold lower.

The values are drawn from ChEMBL document CHEMBL1122713, “Isomeric N-methyl-7-deazaguanines: synthesis, structural assignment, and inhibitory activity on xanthine oxidase” (J Med Chem, 1984).
